System: 11-bp DNA: ds(CCAAT CGA CCC)
Assay: SURFS force spectrum of drug-bound DNA duplex (dissociation voltage)
Type: binding
Settings: daunomycin-11-bp DNA vs 12-bp DNA
Description: A piezo plate was placed on a piece of rubber. On top of the piezo, a water reservoir was constructed. The sample was mounted on a glass rod for scanning. The bottom of the sample, which contains the immobilized molecular system, makes contact with the water surface prior to ultrasound application. The water level was carefully monitored to be constant during experiment. […] A DNA duplex with 12-basepair (bp) was used to calculate the force resolution. The dissociation voltage was determined to be 0.204 V on the function generator, with ±0.001 V resolution. […] Because the acoustic radiation force is proportional to the ultrasound power, or V^2, the force resolution can be calculated as δF=(2δV/V)*F=(2*0.001/0.204)*45=0.5 pN (1)
In FIG. 4a, the force spectra of 12-bp DNA and daunomycin bound 11-bp DNA are compared. The two dissociation voltages were well distinguished, with the former at 0.204 V and the latter at 0.226 V. However, previous techniques of the prior art cannot distinguish the two forces, which are 45^±2 and 48^±2 pN respectively.

## COc1cccc2c1C(=O)c1c(O)c3c(c(O)c1C2=O)C[C@@](O)(C(C)=O)C[C@@H]3O[C@H]1C[C@H](N)[C@H](O)[C@H](C)O1 [daunomycin]
  binding strength compared with 12-bp DNA: stronger than 12-bp DNA

Source: patent US12085534B2, “Multiplexable super-resolution force spectroscopy using ultrasound methods and magnetic detection” (University of Houston System, priority 2018, dated 2024)
